Article PMC6477744, “Mebendazole-induced M1 polarisation of THP-1 macrophages may involve DYRK1B inhibition” (BMC Research Notes, 2019)

Target: Dual specificity tyrosine-phosphorylation-regulated kinase 1B (DYRK1B) (Homo sapiens, UniProt Q9Y463)
Assay: DiscoverX competition binding assay (DNA-tagged kinase, 11-point Kd); also enzyme inhibition IC50 […] at […] ATP

Chain of Dual specificity tyrosine-phosphorylation-regulated kinase 1B (DYRK1B) (Q9Y463 whole entry): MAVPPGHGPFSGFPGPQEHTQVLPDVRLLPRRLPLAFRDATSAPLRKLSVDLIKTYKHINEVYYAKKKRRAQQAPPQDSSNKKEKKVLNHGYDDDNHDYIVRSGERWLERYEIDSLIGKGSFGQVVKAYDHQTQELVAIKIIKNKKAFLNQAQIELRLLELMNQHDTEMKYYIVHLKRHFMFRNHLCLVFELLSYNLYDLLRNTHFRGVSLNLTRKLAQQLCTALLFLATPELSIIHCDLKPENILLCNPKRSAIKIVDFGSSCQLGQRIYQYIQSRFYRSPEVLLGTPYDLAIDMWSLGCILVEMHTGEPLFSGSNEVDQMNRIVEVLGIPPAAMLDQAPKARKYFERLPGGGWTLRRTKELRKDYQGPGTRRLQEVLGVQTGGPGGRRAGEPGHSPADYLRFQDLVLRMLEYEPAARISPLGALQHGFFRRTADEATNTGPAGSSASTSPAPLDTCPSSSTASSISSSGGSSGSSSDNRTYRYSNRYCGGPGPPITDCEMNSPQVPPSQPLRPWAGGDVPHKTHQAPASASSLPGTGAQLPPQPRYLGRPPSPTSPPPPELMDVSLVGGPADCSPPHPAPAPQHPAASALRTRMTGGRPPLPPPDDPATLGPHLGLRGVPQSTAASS

Kd: 7 nM
SMILES: COC(=O)Nc1nc2ccc(C(=O)c3ccccc3)cc2[nH]1 [MBZ, mebendazole]
